Test results taken from patent publication US11981658B2, “Substituted aminopyridine compounds as EGFR inhibitors” (YUHAN CORPORATION, priority 2021, dated 2024).
Like-named read-outs stand apart in the source and are kept apart here.

What was measured:
EGFR Del19/T790M/C797S = EGFR Del19/T790M/C797S (Homo sapiens, UniProt P00533, C797S/DEL746-750/T790M); assay: Biochemical EGFR kinase inhibition assay (Lance Ultra TR-FRET), triple mutant del19/T790M/C797S
Method in brief: (§1)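 In this biochemical assay, phosphorylation after a one-hour room-temperature reaction was detected with europium-labelled anti-phosphopeptide antibody at 2 nM final concentration.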

EGFR L858R/T790M/C797S = EGFR L858R/T790M/C797S (Homo sapiens, UniProt P00533, C797S/L858R/T790M); assay: Biochemical EGFR kinase inhibition assay (Lance Ultra TR-FRET), triple mutant L858R/T790M/C797S
Sequence of EGFR L858R/T790M/C797S (P00533 25-1210 T790M/C797S/L858R): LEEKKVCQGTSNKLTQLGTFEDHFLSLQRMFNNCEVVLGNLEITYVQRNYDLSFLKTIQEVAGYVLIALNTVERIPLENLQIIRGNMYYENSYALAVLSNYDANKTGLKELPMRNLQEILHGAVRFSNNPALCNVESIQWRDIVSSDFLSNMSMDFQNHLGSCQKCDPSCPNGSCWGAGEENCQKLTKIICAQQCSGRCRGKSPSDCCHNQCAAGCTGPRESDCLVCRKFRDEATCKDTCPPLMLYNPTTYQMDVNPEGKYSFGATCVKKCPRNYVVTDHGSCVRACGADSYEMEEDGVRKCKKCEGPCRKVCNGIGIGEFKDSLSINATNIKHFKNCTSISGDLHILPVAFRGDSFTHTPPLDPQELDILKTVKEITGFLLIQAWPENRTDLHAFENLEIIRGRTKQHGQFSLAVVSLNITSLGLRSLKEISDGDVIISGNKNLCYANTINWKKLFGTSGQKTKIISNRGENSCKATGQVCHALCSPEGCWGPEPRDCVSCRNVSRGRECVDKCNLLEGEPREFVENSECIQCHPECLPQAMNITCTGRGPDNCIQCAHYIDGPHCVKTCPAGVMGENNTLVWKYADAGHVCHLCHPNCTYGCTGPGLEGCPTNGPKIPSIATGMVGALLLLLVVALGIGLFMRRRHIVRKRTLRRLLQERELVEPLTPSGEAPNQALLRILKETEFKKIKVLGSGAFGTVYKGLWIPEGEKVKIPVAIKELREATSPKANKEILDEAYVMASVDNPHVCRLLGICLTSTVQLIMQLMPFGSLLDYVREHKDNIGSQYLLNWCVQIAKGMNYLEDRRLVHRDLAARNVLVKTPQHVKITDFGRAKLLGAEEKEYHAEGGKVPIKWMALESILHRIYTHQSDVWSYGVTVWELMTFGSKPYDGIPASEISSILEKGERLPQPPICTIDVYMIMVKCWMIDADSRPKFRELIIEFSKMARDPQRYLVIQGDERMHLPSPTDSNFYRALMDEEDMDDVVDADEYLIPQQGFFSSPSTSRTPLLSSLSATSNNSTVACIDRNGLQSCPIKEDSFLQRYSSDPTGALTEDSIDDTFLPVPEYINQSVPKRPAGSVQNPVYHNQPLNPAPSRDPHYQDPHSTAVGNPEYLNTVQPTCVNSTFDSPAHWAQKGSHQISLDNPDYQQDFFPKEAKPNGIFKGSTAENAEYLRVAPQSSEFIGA
Method in brief: as §1

EGFR Del19/C797S = EGFR Del19/C797S (Homo sapiens, UniProt P00533, C797S/DEL746-750); assay: Biochemical EGFR kinase inhibition assay (Lance Ultra TR-FRET), double mutant del19/C797S
Method in brief: as §1

EGFR L858R/C797S = EGFR L858R/C797S (Homo sapiens, UniProt P00533, C797S/L858R); assay: Biochemical EGFR kinase inhibition assay (Lance Ultra TR-FRET), double mutant L858R/C797S
Sequence of EGFR L858R/C797S (P00533 25-1210 C797S/L858R): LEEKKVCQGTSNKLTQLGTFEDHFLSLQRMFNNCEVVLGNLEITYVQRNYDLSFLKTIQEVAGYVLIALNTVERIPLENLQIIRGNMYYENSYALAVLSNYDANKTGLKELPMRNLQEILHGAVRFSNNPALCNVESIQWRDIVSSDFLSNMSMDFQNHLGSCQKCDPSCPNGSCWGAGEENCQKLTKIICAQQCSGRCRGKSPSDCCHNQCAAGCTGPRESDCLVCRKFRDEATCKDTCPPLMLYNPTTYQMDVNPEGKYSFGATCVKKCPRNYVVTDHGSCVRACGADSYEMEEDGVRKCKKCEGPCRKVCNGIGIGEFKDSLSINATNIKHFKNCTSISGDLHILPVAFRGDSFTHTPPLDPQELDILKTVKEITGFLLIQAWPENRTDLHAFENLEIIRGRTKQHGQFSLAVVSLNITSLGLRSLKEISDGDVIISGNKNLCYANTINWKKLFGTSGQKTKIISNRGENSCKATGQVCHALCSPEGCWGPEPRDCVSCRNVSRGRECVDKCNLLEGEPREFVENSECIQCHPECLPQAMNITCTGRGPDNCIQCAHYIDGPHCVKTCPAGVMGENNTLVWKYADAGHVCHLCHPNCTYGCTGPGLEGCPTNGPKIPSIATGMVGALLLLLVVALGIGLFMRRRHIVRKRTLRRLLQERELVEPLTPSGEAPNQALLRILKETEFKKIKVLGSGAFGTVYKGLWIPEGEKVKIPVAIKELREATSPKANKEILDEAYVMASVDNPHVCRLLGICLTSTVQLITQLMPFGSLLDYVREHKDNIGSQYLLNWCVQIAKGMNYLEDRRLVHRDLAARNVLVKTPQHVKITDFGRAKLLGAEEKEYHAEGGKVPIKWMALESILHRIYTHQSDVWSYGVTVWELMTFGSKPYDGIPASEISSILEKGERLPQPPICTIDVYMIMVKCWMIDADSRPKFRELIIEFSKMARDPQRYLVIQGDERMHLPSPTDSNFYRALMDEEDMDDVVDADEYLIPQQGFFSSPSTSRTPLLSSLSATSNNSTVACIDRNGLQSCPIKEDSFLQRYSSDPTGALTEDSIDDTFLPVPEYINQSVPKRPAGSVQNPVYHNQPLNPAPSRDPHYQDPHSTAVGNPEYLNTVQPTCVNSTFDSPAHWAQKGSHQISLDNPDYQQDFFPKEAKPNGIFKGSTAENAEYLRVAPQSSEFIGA
Method in brief: as §1

EGFR wildtype (WT) = EGFR wildtype (WT) (Homo sapiens, UniProt P00533); assay: Biochemical EGFR kinase inhibition assay (Lance Ultra TR-FRET), wildtype
Sequence of EGFR wildtype (WT) (P00533 25-1210): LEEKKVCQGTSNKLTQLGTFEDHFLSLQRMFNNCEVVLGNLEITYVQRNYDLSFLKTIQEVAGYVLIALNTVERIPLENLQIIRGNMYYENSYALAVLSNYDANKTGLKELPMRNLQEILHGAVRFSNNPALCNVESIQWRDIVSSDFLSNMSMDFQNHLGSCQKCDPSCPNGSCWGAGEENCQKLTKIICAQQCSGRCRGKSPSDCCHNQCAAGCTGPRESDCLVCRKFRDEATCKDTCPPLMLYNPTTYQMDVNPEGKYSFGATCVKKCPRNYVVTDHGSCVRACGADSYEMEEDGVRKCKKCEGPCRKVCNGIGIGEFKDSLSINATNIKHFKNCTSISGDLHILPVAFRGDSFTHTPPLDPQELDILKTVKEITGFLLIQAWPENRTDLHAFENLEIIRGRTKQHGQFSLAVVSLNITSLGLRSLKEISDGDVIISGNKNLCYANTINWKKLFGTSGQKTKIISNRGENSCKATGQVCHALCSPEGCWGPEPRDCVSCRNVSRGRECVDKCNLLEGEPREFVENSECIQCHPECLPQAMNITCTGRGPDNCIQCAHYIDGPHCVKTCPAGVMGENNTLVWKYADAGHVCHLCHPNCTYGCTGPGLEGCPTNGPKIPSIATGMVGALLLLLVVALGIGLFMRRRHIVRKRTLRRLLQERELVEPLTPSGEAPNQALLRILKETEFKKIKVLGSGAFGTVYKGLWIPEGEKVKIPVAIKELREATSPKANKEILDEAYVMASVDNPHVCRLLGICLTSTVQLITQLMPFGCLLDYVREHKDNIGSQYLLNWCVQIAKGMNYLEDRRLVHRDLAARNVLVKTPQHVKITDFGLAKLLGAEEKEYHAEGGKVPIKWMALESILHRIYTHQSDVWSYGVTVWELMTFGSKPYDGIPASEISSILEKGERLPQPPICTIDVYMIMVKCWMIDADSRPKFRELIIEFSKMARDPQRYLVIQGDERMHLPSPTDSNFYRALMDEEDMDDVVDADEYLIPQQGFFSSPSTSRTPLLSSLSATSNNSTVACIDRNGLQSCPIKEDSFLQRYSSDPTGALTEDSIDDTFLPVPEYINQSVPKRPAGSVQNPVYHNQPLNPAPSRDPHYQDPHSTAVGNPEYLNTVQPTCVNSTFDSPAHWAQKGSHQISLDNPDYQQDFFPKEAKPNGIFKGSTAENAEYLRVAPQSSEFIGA
Method in brief: as §1

[1] = IC50 Del19/T790M/C797S (nM), 100 μM ATP
[2] = Km ATP, read-out: IC50 Del19/T790M/C797S (nM) Km ATP
[3] = IC50 L858R/T790M/C797S (nM), 100 μM ATP
[4] = Km ATP, read-out: IC50 L858R/T790M/C797S (nM) Km ATP
[5] = IC50 Del19/C797S (nM), 100 μM ATP
[6] = Km ATP, read-out: IC50 Del19/C797S (nM) Km ATP
[7] = IC50 L858R/C797S (nM), 100 μM ATP
[8] = Km ATP, read-out: IC50 L858R/C797S (nM) Km ATP
[9] = Km ATP, read-out: IC50 WT (nM) Km ATP
[10] = ATP at Km, read-out: IC50 Del19/T790M/C797S (nM), Km ATP
[11] = ATP at Km, read-out: IC50 L858R/T790M/C797S (nM), Km ATP
[12] = ATP at Km, read-out: IC50 Del19/C797S (nM), Km ATP
[13] = ATP at Km, read-out: IC50 L858R/C797S (nM), Km ATP
[14] = ATP at Km, read-out: IC50 WT (nM), Km ATP
[15] = Km ATP, read-out: IC50 Del19/T790M/C797S (nM), Km ATP
[16] = Km ATP, read-out: IC50 L858R/T790M/C797S (nM), Km ATP
[17] = Km ATP, read-out: IC50 Del19/C797S (nM), Km ATP
[18] = Km ATP, read-out: IC50 L858R/C797S (nM), Km ATP
[19] = Km ATP, read-out: IC50 WT (nM), Km ATP

Sequence of EGFR Del19/T790M/C797S (P00533 with tags, fused parts or gaps DEL746-750/T790M/C797S): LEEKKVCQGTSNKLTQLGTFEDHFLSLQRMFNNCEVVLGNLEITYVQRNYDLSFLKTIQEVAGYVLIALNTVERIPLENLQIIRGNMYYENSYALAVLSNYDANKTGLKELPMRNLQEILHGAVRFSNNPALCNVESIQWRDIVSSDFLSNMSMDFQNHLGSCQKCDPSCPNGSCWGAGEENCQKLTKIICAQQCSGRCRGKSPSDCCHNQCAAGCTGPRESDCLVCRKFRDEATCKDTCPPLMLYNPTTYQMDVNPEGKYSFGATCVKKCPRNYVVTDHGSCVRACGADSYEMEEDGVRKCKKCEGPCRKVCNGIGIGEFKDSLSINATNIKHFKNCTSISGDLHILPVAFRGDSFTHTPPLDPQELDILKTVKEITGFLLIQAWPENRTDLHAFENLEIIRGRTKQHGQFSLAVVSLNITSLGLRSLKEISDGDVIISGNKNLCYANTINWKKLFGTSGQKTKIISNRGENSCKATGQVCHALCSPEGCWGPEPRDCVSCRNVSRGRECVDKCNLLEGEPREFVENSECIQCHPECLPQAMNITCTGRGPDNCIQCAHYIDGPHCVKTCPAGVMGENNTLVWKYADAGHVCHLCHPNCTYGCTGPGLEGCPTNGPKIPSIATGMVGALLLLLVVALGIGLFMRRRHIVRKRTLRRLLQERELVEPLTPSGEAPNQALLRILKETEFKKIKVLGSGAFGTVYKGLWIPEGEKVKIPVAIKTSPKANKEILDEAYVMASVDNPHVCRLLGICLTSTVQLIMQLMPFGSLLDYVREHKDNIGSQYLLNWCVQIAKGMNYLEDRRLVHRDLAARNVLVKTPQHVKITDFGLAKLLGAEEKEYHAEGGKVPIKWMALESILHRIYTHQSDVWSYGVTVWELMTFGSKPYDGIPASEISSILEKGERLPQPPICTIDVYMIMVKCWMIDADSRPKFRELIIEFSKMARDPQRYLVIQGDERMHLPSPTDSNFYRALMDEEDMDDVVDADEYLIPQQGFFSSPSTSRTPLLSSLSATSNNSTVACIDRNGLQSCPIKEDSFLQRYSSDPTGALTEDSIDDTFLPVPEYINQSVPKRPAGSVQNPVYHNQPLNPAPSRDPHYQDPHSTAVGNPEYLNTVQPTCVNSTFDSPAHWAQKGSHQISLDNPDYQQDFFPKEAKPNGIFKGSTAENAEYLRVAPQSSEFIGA

Row | SMILES | IC50 (EGFR Del19/T790M/C797S; [1]) | IC50 (EGFR L858R/T790M/C797S; [3]) | IC50 (EGFR Del19/C797S; [5]) | IC50 (EGFR L858R/C797S; [7]) | IC50 (EGFR wildtype (WT); IC50 WT (nM), 100 μM ATP) | IC50 (EGFR Del19/T790M/C797S; [10]) | IC50 (EGFR L858R/T790M/C797S; [11]) | IC50 (EGFR Del19/C797S; [12]) | IC50 (EGFR L858R/C797S; [13]) | IC50 (EGFR wildtype (WT); [14]) | other results
1 | O=S(=O)(C1CC1)n1cc(-c2nccc(Nc3cc(N[C@H]4CC[C@@H](O)CC4)c(C#Cc4cnn(C(F)(F)F)c4)cn3)n2)cn1 [Example 102, (1s,4s)-4-((2-((2-(1-(Cyclopropylsulfonyl)-1H-pyrazol-4-yl)pyrimidin-4-yl)amino)-5-((1-(trifluoromethyl)-1H-pyrazol-4-yl)ethynyl)pyridin-4-yl)amino)cyclohexan-1-ol] | 2.7 nM | 7.6 nM | 26.6 nM | 1030 nM | > 10000 nM |  |  |  |  |  | IC50 (EGFR Del19/T790M/C797S; [2]): 2.8 nM; IC50 (EGFR L858R/T790M/C797S; [4]): 2.1 nM; IC50 (EGFR Del19/C797S; [6]): 13.9 nM; IC50 (EGFR L858R/C797S; [8]): 15.7 nM; IC50 (EGFR wildtype (WT); [9]): 186 nM
2 | CC1(O)CCN(c2cc(Nc3ccnc(-c4cnn(S(=O)(=O)C5CC5)c4)n3)ncc2C#Cc2cccnc2)CC1 [Example 280, 1-(2-((2-(1-(Cyclopropylsulfonyl)-1H-pyrazol-4-yl)pyrimidin-4-yl)amino)-5-(pyridin-3-ylethynyl)pyridin-4-yl)-4-methylpiperidin-4-ol] | 0.3 nM | 0.6 nM | 0.5 nM | 6.3 nM | > 10000 nM | 0.5 nM | 0.4 nM | 0.3 nM | 0.6 nM | 3.5 nM | 
3 | O=S(=O)(C1CC1)n1cc(-c2nccc(Nc3cc(N4CCC(O)CC4)c(C#Cc4ccc(N5CCOCC5)nc4)cn3)n2)cn1 [Example 215, 1-(2-((2-(1-(Cyclopropylsulfonyl)-1H-pyrazol-4-yl)pyrimidin-4-yl)amino)-5-((6-morpholinopyridin-3-yl)ethynyl)pyridin-4-yl)piperidin-4-ol] | 2.9 nM | 11.4 nM | 46.9 nM | 213 nM | > 10000 nM |  |  |  |  |  | 
4 | O=C1CCN(c2cc(Nc3ccnc(-c4cnn(S(=O)(=O)C5CC5)c4)n3)ncc2C#Cc2cnn(C3CCOCC3)c2)CC1 [Example 93, 1-(2-((2-(1-(Cyclopropylsulfonyl)-1H-pyrazol-4-yl)pyrimidin-4-yl)amino)-5-((1-(tetrahydro-2H-pyran-4-yl)-1H-pyrazol-4-yl)ethynyl)pyridin-4-yl)piperidin-4-one] | 2.2 nM | 18.2 nM | 64.8 nM | 372 nM | > 10000 nM |  |  |  |  |  | IC50 (EGFR Del19/T790M/C797S; [2]): 1.9 nM; IC50 (EGFR L858R/T790M/C797S; [4]): 2.5 nM; IC50 (EGFR Del19/C797S; [6]): 43 nM; IC50 (EGFR L858R/C797S; [8]): 18.3 nM; IC50 (EGFR wildtype (WT); [9]): 260 nM
5 | CN(C)CCC1CCN(c2cc(Nc3ccnc(-c4cnn(S(=O)(=O)C5CC5)c4)n3)ncc2C#CC2CCO[C@H]2C(F)(F)F)CC1 (stereo partly drawn) [Example 419, 2-(1-(Cyclopropylsulfonyl)-1H-pyrazol-4-yl)-N-(4-(4-(2-(dimethylamino)ethyl)piperidin-1-yl)-5-(((2R)-2-(trifluoromethyl)tetrahydrofuran-3-yl)ethynyl)pyridin-2-yl)pyrimidin-4-amine] | 1 nM | 1.5 nM | 4.8 nM | 97.5 nM | > 10000 nM |  |  |  |  |  | IC50 (EGFR Del19/T790M/C797S; [15]): 1.1 nM; IC50 (EGFR L858R/T790M/C797S; [16]): 0.4 nM; IC50 (EGFR Del19/C797S; [17]): 3.9 nM; IC50 (EGFR L858R/C797S; [18]): 7.1 nM; IC50 (EGFR wildtype (WT); [19]): 31 nM
6 | O=S(=O)(C1CC1)n1cc(-c2nccc(Nc3cc(N4CCC(CCO)CC4)c(C#Cc4cnn(CCF)c4)cn3)n2)cn1 [Example 17, 2-(1-(2-((2-(1-(Cyclopropylsulfonyl)-1H-pyrazol-4-yl)pyrimidin-4-yl)amino)-5-((1-(2-fluoroethyl)-1H-pyrazol-4-yl)ethynyl)pyridin-4-yl)piperidin-4-yl)ethan-1-ol] | 2 nM | 6.1 nM | 10.3 nM | 53.3 nM | > 10000 nM |  |  |  |  |  | 
7 | CN1CCN(Cc2ccc(C#Cc3cnc(Nc4ccnc(-c5cnn(S(=O)(=O)C6CC6)c5)n4)cc3N3CCC(C)(CO)CC3)cn2)CC1 [Example 279, (1-(2-((2-(1-(Cyclopropylsulfonyl)-1H-pyrazol-4-yl)pyrimidin-4-yl)amino)-5-((6-((4-methylpiperazin-1-yl)methyl)pyridin-3-yl)ethynyl)pyridin-4-yl)-4-methylpiperidin-4-yl)methanol] | 0.7 nM | 0.5 nM | 0.6 nM | 0.6 nM | 111 nM | 0.6 nM | 0.1 nM | 0.2 nM | 0.6 nM | 0.6 nM | 
8 | CN(C)CCC1CCCN(c2cc(Nc3ccnc(-c4cnn(S(=O)(=O)C5CC5)c4)n3)ncc2C#Cc2cnn(CCF)c2)C1 (stereo not shown) [Example 386, 2-(1-(Cyclopropylsulfonyl)-1H-pyrazol-4-yl)-N-(4-(3-(2-(dimethylamino)ethyl)piperidin-1-yl)-5-((1-(2-fluoroethyl)-1H-pyrazol-4-yl)ethynyl)pyridin-2-yl)pyrimidin-4-amine] | 0.3 nM | 0.4 nM | 1.4 nM | 7.6 nM | 1790 nM |  |  |  |  |  | IC50 (EGFR Del19/T790M/C797S; [15]): 0.1 nM; IC50 (EGFR L858R/T790M/C797S; [16]): 0.1 nM; IC50 (EGFR Del19/C797S; [17]): 0.9 nM; IC50 (EGFR L858R/C797S; [18]): 0.9 nM; IC50 (EGFR wildtype (WT); [19]): 3 nM
9 | CC1(CO)CCN(c2cc(Nc3ccnc(-c4cnn(S(=O)(=O)C5CC5)c4)n3)ncc2C#Cc2cnc(C(F)(F)F)s2)CC1 [Example 292, (1-(2-((2-(1-(Cyclopropylsulfonyl)-1H-pyrazol-4-yl)pyrimidin-4-yl)amino)-5-((2-(trifluoromethyl)thiazol-5-yl)ethynyl)pyridin-4-yl)-4-methylpiperidin-4-yl)methanol] | 2.2 nM | 4.2 nM | 10.4 nM | 146 nM | > 10000 nM | 4.9 nM | 2.4 nM | 12.2 nM | 38.7 nM | 101 nM | 
10 | CN(C)Cc1cccc(C#Cc2cnc(Nc3ccnc(-c4cnn(S(=O)(=O)C5CC5)c4)n3)cc2N2CCC(C)(CO)CC2)c1 [Example 255, (1-(2-((2-(1-(Cyclopropylsulfonyl)-1H-pyrazol-4-yl)pyrimidin-4-yl)amino)-5-((3-((dimethylamino)methyl)phenyl)ethynyl)pyridin-4-yl)-4-methylpiperidin-4-yl)methanol] | 0.2 nM | 0.3 nM | 0.4 nM | 1.2 nM | 376 nM | 1.3 nM | 0.1 nM | 0.3 nM | 1.4 nM | 1 nM | 
11 | C[C@]1(O)CC[C@@H](Nc2cc(Nc3ccnc(-c4cnn(S(=O)(=O)C5CC5)c4)n3)ncc2C#Cc2ccc(CN3CCOCC3)cc2)CC1 [Example 158, (1s,4s)-4-((2-((2-(1-(Cyclopropylsulfonyl)-1H-pyrazol-4-yl)pyrimidin-4-yl)amino)-5-((4-(morpholinomethyl)phenyl)ethynyl)pyridin-4-yl)amino)-1-methylcyclohexan-1-ol] |  |  |  |  |  | 6.2 nM | 2.5 nM | 18.3 nM | 15.3 nM | 523 nM | IC50 (EGFR Del19/T790M/C797S; read-out: IC50 Del19/T790M/C797S (nM), 100 μM ATP): 6.8 nM; IC50 (EGFR L858R/T790M/C797S; read-out: IC50 L858R/T790M/C797S (nM), 100 μM ATP): 8.4 nM; IC50 (EGFR Del19/C797S; read-out: IC50 Del19/C797S (nM), 100 μM ATP): 131 nM; IC50 (EGFR L858R/C797S; read-out: IC50 L858R/C797S (nM), 100 μM ATP): 809 nM; IC50 (EGFR wildtype (WT); read-out: IC50 WT (nM), 100 μM ATP): > 10000 nM
